In patent US20260317298A1, “Cereblon Ligands and Uses Thereof” (REGENTS OF THE UNIVERSITY OF MICHIGAN, priority 2022, published 2026):
pIC50: −log10 of the molar value. Counter-ions that a name gives are not always drawn.

Molecular target: CRBN/DDB1 (Homo sapiens, UniProt Q96SW2)
Experiment: biochemical

Chain of CRBN/DDB1 (Q96SW2 whole entry): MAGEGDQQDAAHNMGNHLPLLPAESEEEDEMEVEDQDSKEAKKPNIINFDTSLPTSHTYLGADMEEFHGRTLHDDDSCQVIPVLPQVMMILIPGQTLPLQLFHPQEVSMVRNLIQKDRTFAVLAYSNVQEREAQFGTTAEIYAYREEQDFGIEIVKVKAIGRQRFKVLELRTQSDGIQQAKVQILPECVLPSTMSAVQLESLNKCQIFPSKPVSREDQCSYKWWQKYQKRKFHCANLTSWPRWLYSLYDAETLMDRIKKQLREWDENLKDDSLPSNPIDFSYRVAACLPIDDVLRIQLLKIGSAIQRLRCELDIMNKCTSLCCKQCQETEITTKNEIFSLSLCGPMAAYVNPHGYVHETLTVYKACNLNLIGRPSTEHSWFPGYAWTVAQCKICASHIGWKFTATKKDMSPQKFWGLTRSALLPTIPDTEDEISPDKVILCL
Chain of CRBN/DDB1 (Q16531 whole entry partner): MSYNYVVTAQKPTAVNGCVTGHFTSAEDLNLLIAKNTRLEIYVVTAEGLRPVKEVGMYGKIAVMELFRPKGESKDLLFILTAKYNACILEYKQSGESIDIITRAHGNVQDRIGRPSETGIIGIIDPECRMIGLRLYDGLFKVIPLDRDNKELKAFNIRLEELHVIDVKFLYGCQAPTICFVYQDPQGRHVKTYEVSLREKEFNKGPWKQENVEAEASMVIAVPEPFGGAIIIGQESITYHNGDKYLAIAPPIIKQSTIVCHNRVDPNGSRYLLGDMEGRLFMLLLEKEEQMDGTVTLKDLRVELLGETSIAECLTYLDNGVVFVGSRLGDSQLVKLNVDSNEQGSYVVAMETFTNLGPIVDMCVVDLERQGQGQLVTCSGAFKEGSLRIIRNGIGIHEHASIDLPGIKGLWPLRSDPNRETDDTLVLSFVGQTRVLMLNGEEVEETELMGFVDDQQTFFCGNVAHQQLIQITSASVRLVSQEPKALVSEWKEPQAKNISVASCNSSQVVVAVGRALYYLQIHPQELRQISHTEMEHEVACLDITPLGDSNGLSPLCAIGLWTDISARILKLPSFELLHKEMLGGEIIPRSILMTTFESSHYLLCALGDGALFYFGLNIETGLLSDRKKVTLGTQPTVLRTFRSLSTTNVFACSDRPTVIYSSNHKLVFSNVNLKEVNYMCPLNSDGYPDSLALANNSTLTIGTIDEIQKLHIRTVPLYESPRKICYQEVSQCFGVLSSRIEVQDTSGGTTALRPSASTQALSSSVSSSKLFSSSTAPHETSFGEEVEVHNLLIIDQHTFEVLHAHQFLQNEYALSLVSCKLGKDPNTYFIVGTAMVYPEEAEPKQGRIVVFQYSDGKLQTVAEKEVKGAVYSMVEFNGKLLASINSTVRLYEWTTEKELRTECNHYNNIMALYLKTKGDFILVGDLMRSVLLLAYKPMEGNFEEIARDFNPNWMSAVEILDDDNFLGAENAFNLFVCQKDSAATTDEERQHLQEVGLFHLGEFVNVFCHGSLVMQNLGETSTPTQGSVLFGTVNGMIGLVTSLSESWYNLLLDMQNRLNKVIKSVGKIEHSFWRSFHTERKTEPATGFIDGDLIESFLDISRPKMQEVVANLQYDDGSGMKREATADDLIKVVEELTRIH

SMILES | pIC50
O=C1CCC(Nc2ccc3c(c2)OCC32CCNCC2)C(=O)N1 (stereo in doubt) [Compound 11, (R)-3-((2H-spiro[benzofuran-3,4′-piperidin]-6-yl)amino)piperidine-2,6-dione] | 6.30 to 7.30
O=C1CCC(Nc2ccc3c(c2)OCC32CCNCC2)C(=O)N1 (stereo in doubt) [Compound 12, (S)-3-((2H-spiro[benzofuran-3,4′-piperidin]-6-yl)amino)piperidine-2,6-dione] | 5.30 to 6.30
Cc1cc([C@@]23CCNC[C@@H]2C3(F)F)ccc1N[C@@H]1CCC(=O)NC1=O [Compound 7, (R)-3-((4-((1R,6R)-7,7-difluoro-3-azabicyclo[4.1.0]heptan-6-yl)-2-methylphenyl)amino)piperidine-2,6-dione] | < 5.30
Cc1cc([C@]23CCNC[C@H]2C3(F)F)ccc1N[C@H]1CCC(=O)NC1=O [Compound 10, (S)-3-((4-((1S,6S)-7,7-difluoro-3-azabicyclo[4.1.0]heptan-6-yl)-2-methylphenyl)amino)piperidine-2,6-dione] | < 5.30
O=C1CCC(Nc2ccc3c(c2)COC32CCNCC2)C(=O)N1 (centres unmarked) [Compound 15, 3-((3H-spiro[isobenzofuran-1,4′-piperidin]-5-yl)amino)piperidine-2,6-dione HCO2H salt] | 5.30 to 6.30
O=C1CCC(Nc2ccc3c(c2)OCC32CCNCC2(F)F)C(=O)N1 (centres unmarked) [Compound 16, 3-((3′,3′-difluoro-2H-spiro[benzofuran-3,4′-piperidin]-6-yl)amino)piperidine-2,6-dione] | 5.30 to 6.30
O=C1CCC2(CC1)COc1cc(NC3CCC(=O)NC3=O)ccc12 (centres unmarked) [Compound 17, 3-((4′-oxo-2H-spiro[benzofuran-3,1′-cyclohexan]-6-yl)amino)piperidine-2,6-dione] | 5.30 to 6.30
O=C1CCC(Nc2cc3c(cc2F)C2(CCNCC2)CO3)C(=O)N1 (centres unmarked) [Compound 18, 3-((5-fluoro-2H-spiro[benzofuran-3,4′-piperidin]-6-yl)amino)piperidine-2,6-dione HCl salt] | 5.30 to 6.30

The next lines start with the values.

pIC50 | SMILES
5.30 to 6.30 | O=C1CC[C@H](Nc2ccc([C@@]34CCNC[C@@H]3C4(F)F)cc2)C(=O)N1 (single isomer, unassigned) [Compound 1]
5.30 to 6.30 | O=C1CC[C@@H](Nc2ccc([C@@]34CCNC[C@@H]3C4(F)F)cc2)C(=O)N1 (single isomer, unassigned) [Compound 2]
5.30 to 6.30 | O=C1CC[C@@H](Nc2ccc([C@]34CCNC[C@H]3C4(F)F)cc2)C(=O)N1 [Compound 3, (R)-3-((4-((1S,6S)-7,7-difluoro-3-azabicyclo[4.1.0]heptan-6-yl)phenyl)amino)piperidine-2,6-dione]
5.30 to 6.30 | O=C1CC[C@H](Nc2ccc([C@]34CCNC[C@H]3C4(F)F)cc2)C(=O)N1 [Compound 4, (S)-3-((4-((1S,6S)-7,7-difluoro-3-azabicyclo[4.1.0]heptan-6-yl)phenyl)amino)piperidine-2,6-dione]
5.30 to 6.30 | O=C1CC[C@@H](Oc2ccc3c(c2)OCC32CCNCC2)C(=O)N1 [Compound 5, (R)-3-((2H-spiro[benzofuran-3,4′-piperidin]-6-yl)oxy)piperidine-2,6-dione]
5.30 to 6.30 | O=C1CC[C@H](Oc2ccc3c(c2)OCC32CCNCC2)C(=O)N1 [Compound 6, (S)-3-((2H-spiro[benzofuran-3,4′-piperidin]-6-yl)oxy)piperidine-2,6-dione]
5.30 to 6.30 | Cc1cc([C@@]23CCNC[C@@H]2C3(F)F)ccc1N[C@H]1CCC(=O)NC1=O [Compound 8, (S)-3-((4-((1R,6R)-7,7-difluoro-3-azabicyclo[4.1.0]heptan-6-yl)-2-methylphenyl)amino)piperidine-2,6-dione]
5.30 to 6.30 | Cc1cc([C@]23CCNC[C@H]2C3(F)F)ccc1N[C@@H]1CCC(=O)NC1=O [Compound 9, (R)-3-((4-((1S,6S)-7,7-difluoro-3-azabicyclo[4.1.0]heptan-6-yl)-2-methylphenyl)amino)piperidine-2,6-dione]
6.30 to 7.30 | O=C1CCC(Nc2cc(F)c3c(c2)OCC32CCNCC2)C(=O)N1 (centres unmarked) [Compound 19, 3-((4-fluoro-2H-spiro[benzofuran-3,4′-piperidin]-6-yl)amino)piperidine-2,6-dione HCl salt]
